We go through 2 compounds from patent US20110144213A1, “ANHYDROUS DEPIGMENTING COMPOSITIONS COMPRISING A SOLUBILIZED PHENOLIC COMPOUND” (priority 2008, published 2011).

A short description of data set [1]: Stability of the active agents in solvent oils and lipophilic surfactants (HPLC assay against reference substance, colour). It counts as physicochemical. To be noted: for Colour: 40° C. The source says:
Stability of Hydroquinone in Solvent Oils and Lipophilic Surfactants
Assay technique by HPLC against reference substance.
The initial time (T0) is considered as 100%
The above table makes it possible to evaluate the stability of hydroquinone in the various solubilizing agents identified previously.
Stability of Rucinol in Solvent Oils and Lipophlic Surfactants
The initial time (T0) is considered as 100%.
The table below makes it possible to evaluate the stability of rucinol in the solubilizing agents identified previously.

The conditions of data set [2]: cited from earlier work.
A short description of data set [3]: Max. solubility of the active agents in solvent oils, lipophilic surfactants and alcoholic or glycolic solvents (HPLC). To be noted: rucinol in all the solvents tested. It counts as physicochemical. The source says:
a) Solubilities and Stabilities of Hydroquinone in Solvent Oils and Lipophilic Surfactants Hydroquinone Solubilities
The above table makes it possible to identify which solvents are the most solubilizing for the active agent, for optimum selection of the ingredients of the composition. However, the choice of solvent will also be made on the basis of the results of the stability of hydroquinone in these solvents. […]
b) Solubilities and Stabilities of Rucinol in Solvent Oils and Lipophilic Surfactants […]
However, the optimum choice of solvent will also be made on the basis of the results of the stability of rucinol in these solvents.

Like-named read-outs stand apart in the source and are kept apart here.

With `Oc1ccc(O)cc1` [Hydroquinone, hydroquinone], the Colour entry in data set [1] (hydroquinone in Ethanol/water (20/80), 1 MONTH) was “Dark”; in data set [1] (hydroquinone in Glycerol, 1 MONTH) it was “Dark”; in data set [1] (hydroquinone in Propylene glycol, 3 MONTHS), “Dark”. Further, the “stability of hydroquinone (in words)” value in data set [1] (in Cremophor EL, browning that becomes pronounced over time and with temperature) was “macroscopic instability”; in data set [1] (in Crodamol DA, Arlamol E and Labrasol, macroscopic observation of the colour), “good chemical and physical stability”; in data set [1] (in solvents of the prior art such as glycols, RT and 40° C., absence of antioxidants), “a colouration is observed”. For the same compound, the entries for the “incidence of the irritation” value in data set [2] (10% hydroquinone concentrations), in data set [2] (concentration of 2%) and in data set [2] (preparations with a 5% dose) were “relatively high”, “virtually nonexistent” and “reduces greatly”, respectively.

Take `CCCCc1ccc(O)cc1O` [Rucinol, 4-butylresorcinol]: the “solubility (in words)” value in data set [3] was “very good solubility”.
